{"source": "patent US4273777A", "about": "“Methods of treating mammals suffering from inflammation and pain” (Laboratorios Bago S.A., priority 1980, dated 1981)", "key": {"[1]": {"experiment": "Influence on the gastro-intestinal tract (ulceration of the gastric epithelium, pylorus ligated, Shay et al.)", "type": "in vivo, rat (Sprague Dawley)", "protocol": "Influence on the gastro-intestinal tract\nTen male rats of Sprague Dawley strain, weighing 200-300 g were used for each compound tested. According to the method of Shay et al. (Shay, H., Komapov. S. A., Feb. S. S., Meranir, D., Gruenstein, M., Siplet, H. Gastroenterology 5, 43, 1945), under anesthesia, the pylorus was ligated and 4 hours later test compounds were orally administered. The animal was sacrificed 1 hour after compound administration. The stomach was removed and examined for macroscopic damage. The ulceration of the gastric epithelium was evaluated by the following evaluation: 0=no hemorrhage sites; 1=some isolated hemorrhagic sites; 2=redness of the gastric epithelium; 3=1 to 5 small ulcers with a diameter smaller than 3 mm; 4=many small ulcers; 5=ulcers--greater than 3 mm; 6=perforated ulcer."}, "[2]": {"experiment": "Randall-Selitto test (analgesic activity, carrageenin inflamed foot)", "type": "in vivo, mouse (Rockland)", "details": "oral, 30 minutes before carrageenin; control (water) 0; doses as for tail pressure (pivaloyloxymethyl TPA ester 166 mg/kg, 66 mg/kg)", "protocol": "Randall-Selitto's method: Ten male mice of Rockland strain weighing 25 g were used for each compound tested. 0.1 ml of 1% carrageenin saline suspension was injected into the subplantar region of the right foot. The test compounds were orally administered 30 minutes before the injection. At hourly intervals for 3 hours after the carrageenin injection, the pain threshold for the inflammed feet was measured determining the amount of pressure with an analgesy meter."}, "[3]": {"experiment": "Tail pressure test (analgesic activity)", "type": "in vivo, mouse (Rockland)", "details": "oral; control (water) 0; dose mg/kg: ASA 100, pivaloyloxymethyl TPA ester 166 and 66, CPA 50, TPA 47, phthalidyl CPA ester 72, pivaloyloxymethyl CPA ester 69, xylyl anthranylates 77 (phthalidyl)/74 (pivaloyloxymethyl), TAA 50, its phthalidyl ester 73.5, pivaloyloxymethyl ester 82", "protocol": "Tail pressure test: Ten male mice of Rockland strain weighing 20-25 g were used for each compound tested. The response threshold on applying pressure to the tail was determined with an analgesy meter at 15 and 60 minutes after oral administration of the test compound. The pressure at which a struggle was elicited was read."}, "[4]": {"experiment": "Carrageenin induced edema test (anti-inflammatory activity)", "parameters": "species or system rat (Sprague Dawley)", "details": "rat, in vivo", "protocol": "Anti-inflammatory Activity (Carrageenin induced edema test)\nFifteen to twenty male rats of Sprague Dawley strain weighing 150-200 g, were employed for each compound tested. 0.1 ml of 1% carrageenin saline suspension was injected into the subplantar region of the right hind-paw. The test compounds were orally administered 30 minutes prior to the injection of carrageenin and the foot volume was determined 1, 3 and 5 hours after the injection of carrageenin. The percent swelling in the foot was obtained by comparing the volume before and after the injection of carrageenin, and the rate of inhibition in the treated animals was calculated."}, "[5]": {"details": "oral, 1 hour after compound, score 0=no hemorrhage sites to 6=perforated ulcer, control 3.0, dose mg/kg: phenylbutazone 75, ASA 100, TPA 47, pivaloyloxymethyl TPA ester 66, CPA 150, phthalidyl CPA ester 216, pivaloyloxymethyl CPA ester 207, xylyl anthranylates 186/196, TAA 60, its esters 88/84.5"}, "[6]": {"details": "versus control (distilled water) 3.0, oral"}}}
{"smiles": "O=C(O)c1cccnc1Nc1cccc(C(F)(F)F)c1", "note": "[2-(3'-trifluoromethyl-anilino)-3-pyridinecarboxylic acid, reference compound]", "values": [{"measurement": "Evaluation (ulceration of the gastric epithelium)", "setting": "[1]; [5]", "result": 3.9}, {"measurement": "Increase (of ulceration evaluation over control)", "setting": "[1]; [6]", "result": 0.9}]}
{"smiles": "CC(=O)Oc1ccccc1C(=O)O", "note": "[Acetylsalicylic acid (ASA), Acetylsalicylic acid, reference compound]", "values": [{"measurement": "Evaluation (ulceration of the gastric epithelium)", "setting": "[1]; rat, in vivo, po", "result": 4.1}, {"measurement": "Increase (of ulceration evaluation over control)", "setting": "[1]; rat, in vivo, po", "result": 1.1}]}
{"smiles": "O=C(O)c1ccccc1Nc1cccc(C(F)(F)F)c1", "note": "[N-(3'-trifluorotolyl)-anthranylic acid, reference compound]", "values": [{"measurement": "Evaluation (ulceration of the gastric epithelium)", "setting": "[1]; [5]", "result": 4.9}, {"measurement": "Increase (of ulceration evaluation over control)", "setting": "[1]; [6]", "result": 1.9}, {"measurement": "Relative strength, Randall-Selitto test", "setting": "[2]", "result": 5.3}, {"measurement": "Relative strength, Tail pressure test", "setting": "[3]", "result": 0.5}]}
{"smiles": "CCCCC1C(=O)N(c2ccccc2)N(c2ccccc2)C1=O", "note": "[Phenylbutazone, reference compound]", "values": [{"measurement": "Evaluation (ulceration of the gastric epithelium)", "setting": "[1]; rat, in vivo, po", "result": 5.5}, {"measurement": "Increase (of ulceration evaluation over control)", "setting": "[1]; rat, in vivo, po", "result": 2.5}]}
{"smiles": "Cc1cccc(Nc2ccccc2C(=O)OC2OC(=O)c3ccccc32)c1C", "note": "(stereo not shown) [Phthalidyl N-(2',3'-xylyl) anthranylate]", "values": [{"measurement": "Evaluation (ulceration of the gastric epithelium)", "setting": "[1]; [5]", "result": 3.3}, {"measurement": "Increase (of ulceration evaluation over control)", "setting": "[1]; [6]", "result": 0.3}, {"measurement": "Relative strength, Randall-Selitto test", "setting": "[2]", "result": 1.37}, {"measurement": "Relative strength, Tail pressure test", "setting": "[3]", "result": 0.56}]}
{"smiles": "O=C(OC1OC(=O)c2ccccc21)c1ccccc1Nc1cccc(C(F)(F)F)c1", "note": "(stereo not shown) [Phthalidyl N-(3'-trifluorotolyl) anthranylate]", "values": [{"measurement": "Evaluation (ulceration of the gastric epithelium)", "setting": "[1]; [5]", "result": 3.5}, {"measurement": "Increase (of ulceration evaluation over control)", "setting": "[1]; [6]", "result": 0.5}, {"measurement": "Relative strength, Randall-Selitto test", "setting": "[2]", "result": 10.6}, {"measurement": "Relative strength, Tail pressure test", "setting": "[3]", "result": 0.74}]}
{"smiles": "Cc1c(Cl)cccc1Nc1ncccc1C(=O)OC1OC(=O)c2ccccc21", "note": "(stereo not shown) [Phthalydil 2(3'-chloro-2'-methylanilino)pyridine 3-carboxylate]", "values": [{"measurement": "Evaluation (ulceration of the gastric epithelium)", "setting": "[1]; [5]", "result": 3.6}, {"measurement": "Increase (of ulceration evaluation over control)", "setting": "[1]; [6]", "result": 0.6}]}
{"smiles": "Cc1c(Cl)cccc1Nc1ncccc1C(=O)OCOC(=O)C(C)(C)C", "note": "[Pivaloyloxymethyl 2-(3'-chloro-2'-methylanilino)-pyridine-3-carboxylate]", "values": [{"measurement": "Evaluation (ulceration of the gastric epithelium)", "setting": "[1]; [5]", "result": 3.0}]}
{"smiles": "CC(C)(C)C(=O)OCOC(=O)c1cccnc1Nc1cccc(C(F)(F)F)c1", "note": "[Pivaloyloxymethyl 2-(3'-trifluoromethylanilino)-pyridine-3-carboxylate]", "values": [{"measurement": "Evaluation (ulceration of the gastric epithelium)", "setting": "[1]; [5]", "result": 3.2}, {"measurement": "Increase (of ulceration evaluation over control)", "setting": "[1]; [6]", "result": 0.2}, {"measurement": "anti-inflammatory activity, in words", "setting": "[4]", "result": "act as anti-inflammatory agent more than as antinociceptive agents"}]}
{"smiles": "Cc1cccc(Nc2ccccc2C(=O)OCOC(=O)C(C)(C)C)c1C", "note": "[Pivaloyloxymethyl N-(2',3'-xylyl) anthranylate]", "values": [{"measurement": "Evaluation (ulceration of the gastric epithelium)", "setting": "[1]; [5]", "result": 3.4}, {"measurement": "Increase (of ulceration evaluation over control)", "setting": "[1]; [6]", "result": 0.4}]}
{"smiles": "CC(C)(C)C(=O)OCOC(=O)c1ccccc1Nc1cccc(C(F)(F)F)c1", "note": "[Pivaloyloxymethyl N-(3'-trifluorotolyl) anthranylate]", "values": [{"measurement": "Evaluation (ulceration of the gastric epithelium)", "setting": "[1]; [5]", "result": 3.6}, {"measurement": "Increase (of ulceration evaluation over control)", "setting": "[1]; [6]", "result": 0.6}]}
